These results are taken from ChEMBL document CHEMBL5356998, “Diaporaustalides A-L, Austalide Meroterpenoids from a Plant Endophytic Diaporthe sp” (J Nat Prod, 2024).

Series [1] in a line: Cytotoxicity against mouse splenocyte by MTT assay. Format: toxicity, cell-based. The conditions noted are these: mouse splenocytes. In general terms: Tetrazolium dyes change colour on reduction, which living cells bring about.
Series [2] relates to Splenocyte. Briefly: Immunosuppressive activity in mouse splenocyte assessed as reduction in ConA-induced mouse T-cell proliferation. Format: functional, cell-based.
Series [3] concerns Splenocyte. Briefly: Immunosuppressive activity in mouse splenocyte assessed as reduction in LPS-induced mouse B-cell proliferation. It counts as functional, cell-based.
A further series has as its target Alpha-glucosidase (Saccharomyces cerevisiae S288c, UniProt P53341+P38158+P07265). Briefly: Inhibition of Saccharomyces cerevisiae alpha glucosidase using p-nitrophenyl glucopyranoside as substrate preincubated for 10 mins followed by substrate addition and measured after 20 mins by microplate reader analysis. It counts as protein assay.
Series [4] is described as follows: Selectivity index, ratio of CC50 for cytotoxicity against mouse splenocyte to IC50 for immunosuppressive activity in mouse splenocyte assessed as reduction in ConA-induced mouse T-cell proliferation. The settings on record: mouse splenocytes, read-out: Ratio CC50/IC50.
The nature of series [5]: Selectivity index, ratio of CC50 for cytotoxicity against mouse splenocyte to IC50 for immunosuppressive activity in mouse splenocyte assessed as reduction in LPS-induced mouse B-cell proliferation. The conditions noted are these: mouse splenocytes, read-out: Ratio CC50/IC50.
The subject of another series is HeLa. Briefly: Cytotoxicity against human HeLa cells by MTT assay. Format: functional, cell-based.
Another series concerns B-cell. Kind of series: Downregulation od IL-6 expression in LPS induced B cell (unknown origin) incubated for 48 hrs by ELISA method. It counts as functional, cell-based. The conditions noted are these: dose 1-25 µM.

A word on the CC50: it is the concentration giving 50% cytotoxicity. By IC50 is commonly meant the concentration that gives 50% inhibition. For the molecule `COc1c2c(c(C(OC)OC)c3c1C(=O)OC3)O[C@]1(C)CC[C@@]3(O)C(C)(C)CCC[C@]3(C)[C@H]1C2`, in series [1], the CC50 is more than 50 µM. Besides, the IC50 in the series with Splenocyte [2] was more than 50 µM; with Splenocyte [3], 44 µM; against Alpha-glucosidase, 92 µM.
Molecule `COc1c2c(c(C=O)c3c1C(=O)OC3)O[C@]1(C)CC[C@@]3(O)[C@@](C)(C(=O)O)CCC[C@]3(C)[C@H]1C2` had a CC50 in series [1] of more than 50 µM. Also, the IC50 is 35 µM with Splenocyte [2] and more than 50 µM in the series on Splenocyte [3]. For the same molecule, the selectivity ratio in series [4] is more than 1.4.
The molecule `COc1c2c(c(C=O)c3c1C(=O)OC3)O[C@]1(C)CC[C@@]3(O)[C@@](C)(COC(C)=O)CCC[C@]3(C)[C@H]1C2` gave a CC50 in series [1] of more than 40 µM. In addition, the 50% inhibitory concentration (IC50) is 28 µM with Splenocyte [2], 17 µM in the series with Splenocyte [3] and 166 µM against Alpha-glucosidase. Besides, the selectivity ratio was more than 1.4 in series [4] and more than 2.3 in series [5].
As for `COc1c(C)c2c(c(O)c1C/C=C(\C)CCC(=O)OCCN1CCOCC1)C(=O)OC2` [MYCOPHENOLATE MOFETIL], the IC50 in the series on Splenocyte [3] came out at 1 µM.
With `COc1c2c(c(C=O)c3c1C(=O)OC3)O[C@]1(C)CC[C@@]3(O)[C@@](C)(CO)CCC[C@]3(C)[C@H]1C2`, the CC50 in series [1] was more than 50 µM. Further, the half-inhibitory concentration (IC50) was 25 µM in the series on Splenocyte [2] and more than 50 µM in the series with Splenocyte [3]. Moreover, the selectivity ratio in series [4] was more than 2.
As for `COc1c2c(c(C=O)c3c1C(=O)OC3)O[C@]1(C)CC[C@@]3(O)C(C)(C)CC[C@@H](O)[C@]3(C)[C@H]1C2`, in series [1], the CC50 was more than 50 µM. Besides, the IC50 is more than 50 µM in the series on Splenocyte [2] and 31 µM in the series on Splenocyte [3]. Moreover, in series [5], the selectivity ratio was more than 1.6.
In the case of `COc1c2c(c(C=O)c3c1C(=O)OC3)O[C@]1(C)CC[C@H]3C(C)(C)[C@@H](O)CC[C@]3(C)[C@H]1C2`, the CC50 in series [1] was more than 50 µM. Further, the IC50 with Splenocyte [2] is 35 µM; in the series on Splenocyte [3], more than 50 µM; in the series on HeLa it was 9.6 µM. Besides, the selectivity ratio in series [4] was more than 1.4.
Turning to `COc1c2c(c(C=O)c3c1C(=O)OC3)O[C@]1(C)CC[C@@]3(O)C(C)(C)[C@H](O)CC[C@]3(C)[C@H]1C2`, in series [1], the CC50 is more than 50 µM. Also, the IC50 with Splenocyte [2] and in the series on Splenocyte [3] was more than 50 µM throughout.
For the molecule `COc1c2c(c(C=O)c3c1C(=O)OC3)O[C@]1(C)CC[C@@]3(O)C(C)(C)CCC[C@]3(C)[C@H]1C2`, the half-maximal cytotoxic concentration (CC50) in series [1] is more than 50 µM. The figures for the IC50 in the series with Splenocyte [2], in the series on Splenocyte [3] and against Alpha-glucosidase were 42 µM, 3.8 µM and 61 µM, respectively. Further, the selectivity ratio in series [4] was 1.1; in series [5] it was more than 13. Besides, in the series on B-cell, the Activity result was “Dose-Dependent Effect”.
In the case of `COc1c2c(c(C=O)c3c1C(=O)OC3)O[C@]1(C)CC[C@@]3(O)C(C)(C)[C@@H](O)CC[C@]3(C)[C@H]1C2`, the CC50 in series [1] is more than 50 µM. For the same molecule, the IC50 is 28 µM in the series with Splenocyte [2] and more than 50 µM in the series on Splenocyte [3]. In series [4], the selectivity ratio is more than 1.7.
In series [1], `COc1c2c(c(C=O)c3c1C(=O)OC3)O[C@]1(C)[C@H](O)C[C@@]3(O)C(C)(C)CCC[C@]3(C)[C@H]1C2` displayed a CC50 of 23 µM. Also, the IC50 in the series with Splenocyte [2] was determined as 22 µM; in the series with Splenocyte [3] it was 8.5 µM. The selectivity ratio in series [4] was more than 1; in series [5] it was 2.7.
With `COc1c2c(c(C=O)c3c1C(=O)OC3)O[C@]1(C)CC[C@H]3C(C)(C)[C@H](O)CC[C@]3(C)[C@H]1C2`, the 50% cytotoxic concentration (CC50) in series [1] was found to be 24 µM. For the same molecule, the IC50 came out at 11 µM in the series with Splenocyte [2] and 6.7 µM with Splenocyte [3]. Further, the selectivity ratio is 2.2 in series [4] and 3.6 in series [5]. Further, in the series on B-cell, the Activity result was “Dose-Dependent Effect”.
`COc1c2c(c(C=O)c3c1C(=O)OC3)O[C@]1(C)CC[C@@]3(O)[C@@](C)(C=O)CCC[C@]3(C)[C@H]1C2` gave a CC50 in series [1] of 43 µM. Besides, the IC50 in the series on Splenocyte [2] stood at 37 µM; with Splenocyte [3] it was 39 µM. Moreover, the selectivity ratio in series [4] came to 1.2; in series [5] it was 1.1.
